ChEMBL document CHEMBL4396933, “Design, synthesis and biological evaluation of 3,5-dimethylisoxazole and pyridone derivatives as BRD4 inhibitors” (Bioorg Med Chem Lett, 2019)

How the values were obtained:
MV4-11 [1] = experiment: Antiproliferative activity against human MV4-11 cells assessed as reduction in cell viability incubated for 72 hrs by CellTiter-Glo luminescent cell viability assay; assay type: functional, cell-based; conditions: MV4-11, 72 h
[2] = molecular target: T1, Bromodomain-containing protein 4 (Homo sapiens, UniProt O60885); experiment: Inhibition of BRD4 bromodomain 1/2 (unknown origin) by alphascreen assay
[3] = molecular target: T1, Bromodomain-containing protein 4; experiment: Inhibition of BRD4 (unknown origin) at 1 uM relative to control
HCT-116 = experiment: Antiproliferative activity against human HCT116 cells; assay type: functional, cell-based
SW480 = experiment: Antiproliferative activity against human SW480 cells; assay type: functional, cell-based
DU-145 = experiment: Antiproliferative activity against human DU145 cells; assay type: functional, cell-based
BT-474 = experiment: Antiproliferative activity against human BT474 cells; assay type: functional, cell-based
CAPAN-1 = experiment: Antiproliferative activity against human Capan1 cells; assay type: functional, cell-based
[4] = molecular target: T1, Bromodomain-containing protein 4; experiment: Inhibition of BRD4 in human MV4-11 cells assessed as downregulation of c-Myc protein expression incubated for 48 hrs by Western blot method; assay type: cell-based
L02 = experiment: Cytotoxicity against human LO2 cells at 0.5 to 40 uM incubated for 72 hrs by MTT assay; assay type: cell-based; conditions: l02, 72 h
MV4-11 [5] = experiment: Induction of cell cycle arrest in human MV4-11 cells assessed as increase in accumulation at G0/G1 phase incubated for 48 hrs by PI staining based flow cytometric analysis; assay type: functional

| Compound | IC50 (MV4-11 [1]) [nM] | IC50 [2] [nM] | inhibition [3] [%] | further results |
| --- | --- | --- | --- | --- |
| CNc1cc(-c2ccc3cnn(CC4CC4)c3c2)cn(C)c1=O | 3450 | 1960 | – | – |
| COc1ccc(C)c(C2CN(Cc3ccc(F)cc3)c3nc(-c4c(C)noc4C)ncc32)c1 (centres undefined) | – | – | < 20 | – |
| CNc1cc(-c2ccc3cnn(Cc4ccc(OC)cc4)c3c2)cn(C)c1=O | 2700 | 1600 | – | – |
| CNc1cc(-c2ccc3cnn(CC4CCCCC4)c3c2)cn(C)c1=O | 2690 | 1810 | – | – |
| Cc1noc(C)c1-c1ccc2c(Nc3ccc(Cl)cc3)nn(C3CCCCO3)c2c1 (centres undefined) | 7400 | – | < 20 | – |
| Cc1ccc(Cn2nc(Nc3ccc(F)cc3)c3ccc(-c4c(C)noc4C)cc32)cc1 | – | – | < 20 | – |
| Cc1noc(C)c1-c1ccc(-n2ncc3ccc(-c4c(C)noc4C)cc32)c(Cl)c1 | 2800 | – | 33 | – |
| COc1ccc(Nc2nn(Cc3ccc(C)cc3)c3cc(-c4c(C)noc4C)ccc23)cc1 | 11900 | – | < 20 | – |
| Cc1ccc(Cn2nc(Nc3ccc(C#N)cc3)c3ccc(-c4c(C)noc4C)cc32)cc1 | 5800 | – | < 20 | – |
| CNc1cc(-c2ccc3cnn(Cc4ccc(F)cc4)c3c2)cn(C)c1=O | 2390 | 1400 | – | – |
| COc1cc(F)ccc1Nc1nn(C2CCCCO2)c2ccc(-c3c(C)noc3C)cc12 (centres undefined) | 17500 | – | < 20 | – |
| Cc1sc2c(c1C)C(c1ccc(Cl)cc1)=N[C@@H](CC(=O)OC(C)(C)C)c1nnc(C)n1-2 | 60 to 90 | – | – | IC50 (HCT-116): 400 nM; IC50 (SW480): 14100 nM; IC50 (DU-145): 200 nM; IC50 (BT-474): 1700 nM; IC50 (CAPAN-1): 800 nM |
| COc1cc(F)ccc1Nc1nn(C2CCCCO2)c2cc(-c3c(C)noc3C)ccc12 (centres undefined) | 8500 | – | < 20 | – |
| CNc1cc(-c2ccc3cnn(Cc4ccc(F)c([N+](=O)[O-])c4)c3c2)cn(C)c1=O | 130 | 800 | – | IC50 (HCT-116): 2600 nM; IC50 (SW480): 10100 nM; IC50 (DU-145): 3400 nM; IC50 (BT-474): 6500 nM; IC50 (CAPAN-1): 4000 nM |
| CNc1cc(-c2ccc3cnn(Cc4ccc(OC)c(F)c4)c3c2)cn(C)c1=O | 4980 | 1400 | – | – |
| CNc1cc(-c2ccc3cnn(Cc4ccc(C)cc4)c3c2)cn(C)c1=O | 3280 | 1600 | – | – |

| Compound | IC50 (MV4-11 [1]) [nM] | IC50 [2] [nM] | inhibition [3] [%] | further results |
| --- | --- | --- | --- | --- |
| COc1cc(Nc2nn(C3CCCCO3)c3cc(-c4c(C)noc4C)ccc23)ccc1F (centres undefined) | 9300 | – | < 20 | – |
| COc1cc2cnn(Cc3ccc(F)cc3)c2cc1-c1c(C)noc1C | 1900 | – | 45 | – |
| COc1ccc(CN2CC(c3ccc(O)cc3)c3cnc(-c4c(C)noc4C)nc32)cc1 (centres undefined) | – | – | < 20 | – |
| COc1ccc(Cn2nc(Nc3ccc(F)cc3)c3ccc(-c4c(C)noc4C)cc32)cc1 | 9100 | – | < 20 | – |
| Cc1noc(C)c1-c1ccc2c(Nc3ccc(F)cc3)n[nH]c2c1 | 7800 | – | < 20 | – |
| Cc1ccc(Cn2nc(Nc3ccc(C(F)(F)F)cc3)c3ccc(-c4c(C)noc4C)cc32)cc1 | – | – | < 20 | – |
| Cc1noc(C)c1-c1ccc2c(Nc3ccc(F)cc3)nn(C3CCCCO3)c2c1 (centres undefined) | 9900 | – | < 20 | – |
| CNc1cc(-c2ccc3cnn(Cc4ccc(C(F)(F)F)cc4)c3c2)cn(C)c1=O | 4370 | 2400 | – | – |
| COc1ccc(Cn2nc(Nc3cccc(C(C)C)c3)c3ccc(-c4c(C)noc4C)cc32)cc1 | 8100 | – | < 20 | – |
| CCNc1cc(-c2ccc3cnn(Cc4cc(OC)cc(OC)c4)c3c2)cn(C)c1=O | 2590 | 1810 | – | – |
| CNc1cc(-c2ccc3cnn(Cc4cc(OC)cc(OC)c4)c3c2)cn(C)c1=O | 190 to 200 | 550 | – | IC50 (HCT-116): 2900 nM; IC50 (SW480): 7400 nM; IC50 (DU-145): 2600 nM; IC50 (BT-474): 8600 nM; IC50 (CAPAN-1): 3800 nM |
| CCNc1cc(-c2ccc3cnn(Cc4ccc(F)cc4)c3c2)cn(C)c1=O | 5650 | 2250 | – | – |
| Cc1noc(C)c1-c1ccc2c(c1)c(Nc1ccc(F)cc1)nn2C1CCCCO1 (centres undefined) | – | – | < 20 | – |
| CNc1cc(-c2ccc3cnn(Cc4ccc(F)c(F)c4)c3c2)cn(C)c1=O | 320 | 860 | – | inhibition [4]: Dose-dependent effect; IC50 (HCT-116): 3000 nM; IC50 (SW480): 8400 nM; Activity (L02): Non-Toxic; IC50 (DU-145): 4800 nM; IC50 (BT-474): 8800 nM; Activity (MV4-11 [5]): Dose-dependent effect; IC50 (CAPAN-1): 3700 nM |
| CCOC(=O)Cn1ncc2ccc(-c3cc(NC)c(=O)n(C)c3)cc21 | 8770 | 1900 | – | – |
